The record followed here is patent publication US11779559B2, “Compositions for treating fungal and bacterial biofilms and methods of using the same” (priority 2017, dated 2023).

The nature of series [1]: Thermal stability in hot aqueous solution. The class given is physicochemical. Conditions: water at about 90° C. to 100° C. An excerpt:
This ingredient is the non-essential amino acid glutamine.

In series [2] the test system is fungal and bacterial biofilms. Put plainly: Biofilm assays (sustained inhibition and disruption), fungal and bacterial biofilms. It is filed as cell-based. To be noted: for Effect on bacterial or fungal biofilms in both assays: sustained inhibition and disruption; for Effect on biofilms: single component on its own. How it is done: (§1) Two types of biofilm assays were performed: a sustained inhibition assay and a disruption assay. The sustained inhibition assay assesses the compound's ability to prevent biofilm development throughout all stages of biofilm formation, while the disruption assay assesses the compound's ability to break up an existing mature biofilm. These assays are described in detail in the following article: Lohse, M. B., Gulati, M., Valle Arevalo, A., Fishburn, A., Johnson, A. D., and Nobile, C. J. (2017) Assessment and optimizations of Candida albicans in vitro biofilm assays. Antimicrobial Agents and Chemotherapy 61: e02749-16.
(§2) For fungal biofilm assays, all solutions were prepared in RPMI 1640 medium. All bacterial biofilm solutions were prepared in Trypic Soy Broth (TSB), supplemented with 1% glucose (henceforth referred to as TSB-G). All subsequent procedures were performed in a manner that maintained sterility. A solution of each amino acid to be tested was prepared in weight to volume concentrations ranging from 0.1-5.0%. Amino acids were also tested in combinations. Compound solutions were homogenized with gentle agitation in the dark (4° C., 24 hours) before use.
(§3) All biofilm assays were performed using 384-well non-tissue culture treated polystyrene plates. The fungal species tested are as follows: Candida albicans, Candida guilhermondii, Candida parapsilosis, Candida glabrata, Candida tropicalis, Candida dubliniensis, and Candida auris. The bacterial species tested are as follows: Staphylococcus aureus (standard wild type and methicillin-resistant strain USA300), Escherichia coli, Pseudomonas aeruginosa and Staphylococcus epidermidis.
(§4) Fungal strains were streaked on Yeast Peptone Dextrose (YPD) agar plates and incubated at 30° C. for 48 hours. A single colony from each strain to be tested was inoculated into YPD broth and grown for 12 hours, at 30° C., shaking at 225 rpm. For the fungal biofilm inhibition assay, 1 μl of saturated overnight cell culture was added to either 80 μL of RPMI-1640 or RPMI-1640 supplemented with the amino acid compound solution to be tested, in a 384-well plate. The cells were allowed to adhere to the plate for 90 minutes at 37° C. with shaking (350 rpm). Loosely bound cells were washed once with phosphate buffered saline (PBS) and 80 ul of RPMI-1640, or RPMI-1640 supplemented with the amino acid compound solution was added to the plate. The plate was further incubated for 24 hours at 37° C. with shaking (350 rpm). Media was carefully aspirated and the biofilm was measured by optical density at 600 nm. Twelve replicates were performed for each tested condition and the reported values are normalized to the control (RPMI-1640 media only). For the fungal biofilm disruption assays, 80 μL of RPMI-1640 was added to the plate, along with 1 μL of overnight cell culture. The cells were allowed to adhere to the plate for 90 minutes at 37° C. with shaking (350 rpm). Loosely bound cells were washed once with PBS and 80 μL of RPMI-1640 was added to the plate. The plate was further incubated for 24 hours at 37° C. with shaking (350 rpm). Media was carefully aspirated from the mature biofilm and 80 μL of RPMI-1640, or RPMI-1640 supplemented with the amino acid compound solution to be tested, was gently added to the plate. The plate was further incubated for 24 hours at 37° C. with shaking (350 rpm). Media was carefully aspirated and the biofilm was measured by optical density at 600 nm. Twelve replicates were performed for each tested condition and the reported values are normalized to the control (RPMI-1640 media only).
Bacterial strains were streaked on Blood Agar plates (5% sheep blood in Tryptic Soy Agar) and incubated at 37° C. for 24 hours. A single colony from each strain to be tested was inoculated in a TSB broth and grown for 12 hours, at 37° C. with shaking (225 rpm).

The subject of series [3] is S. aureus. Briefly: Disruption biofilm assay, bacterial. It is filed as cell-based, Staphylococcus aureus. Conditions: Staphylococcus aureus; for inhibition at 1 %: 24 h, read-out: Reduce B Biofilm. As for the experimental part: (§5) Two types of biofilm assays were performed: a sustained inhibition assay and a disruption assay. The sustained inhibition assay assesses the compound's ability to prevent biofilm development throughout all stages of biofilm formation, while the disruption assay assesses the compound's ability to break up an existing mature biofilm. These assays are described in detail in the following article: Lohse, M. B., Gulati, M., Valle Arevalo, A., Fishburn, A., Johnson, A. D., and Nobile, C. […] Antimicrobial Agents and Chemotherapy 61: e02749-16.
(§6) All bacterial biofilm solutions were prepared in Trypic Soy Broth (TSB), supplemented with 1% glucose (henceforth referred to as TSB-G). All subsequent procedures were performed in a manner that maintained sterility. A solution of each amino acid to be tested was prepared in weight to volume concentrations ranging from 0.1-5.0%. Amino acids were also tested in combinations. Compound solutions were homogenized with gentle agitation in the dark (4° C., 24 hours) before use.
(§7) Bacterial strains were streaked on Blood Agar plates (5% sheep blood in Tryptic Soy Agar) and incubated at 37° C. for 24 hours. A single colony from each strain to be tested was inoculated in a TSB broth and grown for 12 hours, at 37° C. with shaking (225 rpm). For the bacterial biofilm inhibition assays, 1 μL of saturated overnight cell culture was added to either 80 μL of TSB-G, or TSB-G supplemented with the amino acid compound solution to be tested, in a 384-well plate. The cells were allowed to adhere to the plate for 60 minutes at 37° C. without shaking. The media was carefully aspirated and 80 μL of TSB-G, or TSB-G supplemented with the amino acid compound solution was added to the plate. The plate was further incubated for 24 hours at 37° C. without shaking. Media was carefully aspirated and the biofilm was measured by optical density at 600 nm. Eight or twelve replicates were performed for each tested condition and the reported values are normalized to the control (TSB-G media only). For the bacterial biofilm disruption assays, 80 μL of TSB-G was added to the plate, along with 1 μL of overnight cell culture. The cells were allowed to adhere to the plate for 60 minutes at 37° C. with no shaking. The media was carefully aspirated and 80 μL of TSB-G was added to the plate. The plate was further incubated for 24 hours at 37° C. with no shaking. Media was carefully aspirated from the mature biofilm and 80 μL of TSB-G, or TSB-G supplemented with the amino acid to be tested, was gently added to the plate. The plate was further incubated for 24 hours at 37° C. without shaking. Media was aspirated and the biofilm was measured by optical density at 600 nm. Twelve replicates were performed for each tested condition and the reported values are normalized to the control (TSB-G media only).

In series [4] the test system is bacteria (S. aureus) biofilm and fungal (C. albicans) biofilm. Put plainly: Disruption biofilm assay, bacterial and fungal taken together. It is filed as cell-based. How it is done: as §1, §2
(§8) Fungal strains were streaked on Yeast Peptone Dextrose (YPD) agar plates and incubated at 30° C. for 48 hours. A single colony from each strain to be tested was inoculated into YPD broth and grown for 12 hours, at 30° C., shaking at 225 rpm. For the fungal biofilm inhibition assay, 1 μl of saturated overnight cell culture was added to either 80 μL of RPMI-1640 or RPMI-1640 supplemented with the amino acid compound solution to be tested, in a 384-well plate. […] Media was carefully aspirated and the biofilm was measured by optical density at 600 nm. […] Media was carefully aspirated and the biofilm was measured by optical density at 600 nm. […]
(§9) Bacterial strains were streaked on Blood Agar plates (5% sheep blood in Tryptic Soy Agar) and incubated at 37° C. for 24 hours. […] Media was carefully aspirated and the biofilm was measured by optical density at 600 nm. […]

The test system is the same in series [5]. Put plainly: Sustained inhibition biofilm assay, bacterial and fungal taken together. It is filed as cell-based. How it is done:
as §1, §2, §8, §9

Series [6] relates to S. aureus. Briefly: Sustained inhibition biofilm assay, bacterial. It is filed as cell-based, Staphylococcus aureus. As for the experimental part: as §5, §6, §7
For series [7], the system named is C. albicans. Briefly: Sustained inhibition biofilm assay, fungal. It is filed as cell-based, Candida albicans. How it is done: as §5, §6
(§10) Fungal strains were streaked on Yeast Peptone Dextrose (YPD) agar plates and incubated at 30° C. for 48 hours. A single colony from each strain to be tested was inoculated into YPD broth and grown for 12 hours, at 30° C., shaking at 225 rpm. […] The cells were allowed to adhere to the plate for 90 minutes at 37° C. with shaking (350 rpm). […] The plate was further incubated for 24 hours at 37° C. with shaking (350 rpm). Media was carefully aspirated and the biofilm was measured by optical density at 600 nm. […] The cells were allowed to adhere to the plate for 90 minutes at 37° C. with shaking (350 rpm). […] The plate was further incubated for 24 hours at 37° C. with shaking (350 rpm). […] The plate was further incubated for 24 hours at 37° C. with shaking (350 rpm). Media was carefully aspirated and the biofilm was measured by optical density at 600 nm.

Series [8] has as its system C. albicans. Briefly: Disruption biofilm assay, fungal. It is filed as cell-based, Candida albicans. As for the experimental part:
as §5, §6, §10

For another series, the system named is fungal biofilms. Briefly: Biofilm assays (sustained inhibition and/or disruption), fungal biofilms. It is filed as cell-based. Conditions: in at least one of the two biofilm assays; for Anti-biofilm effect against fungal biofilms (reduction): administered individually. As for the experimental part:
as §1, §2, §3, §4

The next series has as its system bacterial biofilms. Briefly: Biofilm assays (sustained inhibition and/or disruption), bacterial biofilms. The class given is cell-based. To be noted: in at least one of the two biofilm assays. As for the experimental part:
as §1, §2, §3, §7

The mark [9] stands for this setting: disruption assay, S. aureus, 1% amino acid (unless specifically noted), p≤0.001.
Setting [10] is: sustained inhibition assay, C. albicans, 1% amino acid (unless specifically noted), p≤0.001.
Setting [11] is: disruption assay, C. albicans, 1% amino acid (unless specifically noted), p≤0.001.

Like-named read-outs stand apart in the source and are kept apart here.

With `NC(=O)CC[C@H](N)C(=O)O` [Glutamine, L-glutamine], in [1], the “Thermal degradation in aqueous solution” value is “highly susceptible to thermal degradation”. In addition, in series [2], the “Effect on bacterial or fungal biofilms in both assays” value was “neutral”.

On to `N[C@@H](CS)C(=O)O` [Cysteine, L-cysteine], for which the inhibition at 1 % in the series with S. aureus [3] (setting [9]) is greater than 30%. Besides, the “Reduce Both” value is “●● (two dots [ie. ••] signifies major effect (greater than about 30% change))” in series [4] (disruption assay, bacterial and fungal biofilm, 1% amino acid (unless specifically noted), p≤0.001); “●● (two dots [ie. ••] signifies major effect (greater than about 30% change))” in [5] (sustained inhibition assay, bacterial and fungal biofilm, 1% amino acid (unless specifically noted), p≤0.001). For the same molecule, the “Reduce B Biofilm” value in the series on S. aureus [6] (sustained inhibition assay, S. aureus, 1% amino acid (unless specifically noted), p≤0.001) was “●● (two dots [ie. ••] signifies major effect (greater than about 30% change))”. In addition, the “Reduce F Biofilm” value in the series on C. albicans [7] (setting [10]) and in the series on C. albicans [8] (setting [11]) was “●● (two dots [ie. ••] signifies major effect (greater than about 30% change))” throughout.

On to `N[C@@H](CCS)C(=O)O` [Homocysteine (0.4%), L-homocysteine], for which the “Anti-biofilm effect against fungal biofilms (reduction)” value (“Anti-biofilm effect … (reduction)” for short) in the series on fungal biofilms is recorded as “less than twofold”.

Turning to `N[C@@H](COP(=O)(O)O)C(=O)O` [Phosphoserine, O-phospho-L-serine], the inhibition at 1 % in the series with S. aureus [3] (setting [9]) is 10 to 30%. In the series with C. albicans [8] (setting [11]), the “Reduce F Biofilm” value was “● (a single dot [ie. •] signifies minor effect (from about 10 to about 30% change))”. Moreover, the “Anti-biofilm effect … (reduction)” value with fungal biofilms is reported as “less than twofold”.

Turning to `Cn1cncc1C[C@H](N)C(=O)O` [3-Methylhistidine, 3-methyl-L-histidine], the inhibition at 1 % with S. aureus [3] (setting [9]) was in the range of 10 to 30%. Besides, in the series on C. albicans [7] (setting [10]), the “Promote F Biofilm” value was “● (a single dot [ie. •] signifies minor effect (from about 10 to about 30% change))”. Further, the “Effect on fungal biofilm growth” value with fungal biofilms is on record as “support (improve) fungal biofilm growth”.

Turning to `N[C@@H](CCC(=O)O)C(=O)O` [Glutamic Acid, L-glutamic acid], the inhibition at 1 % in the series with S. aureus [3] is greater than 30%. In addition, the “Reduce Both” value in series [4] and in [5] was “●● (two dots [ie. ••] signifies major effect (greater than about 30% change))” each time. In addition, the “Reduce B Biofilm” value in the series on S. aureus [6] was “●● (two dots [ie. ••] signifies major effect (greater than about 30% change))”. For the same molecule, the “Reduce F Biofilm” value in the series on C. albicans [7] and with C. albicans [8] was “●● (two dots [ie. ••] signifies major effect (greater than about 30% change))” each time. Moreover, the Effect on biofilms result in series [2] is listed as “very active against biofilms”.

As to `CC(C)[C@H](N)C(=O)O` [Valine, L-valine], the inhibition at 1 % in the series on S. aureus [3] (setting [9]) fell in the range of 10 to 30%. The “Promote F Biofilm” value in the series on C. albicans [7] (setting [10]) is “● (a single dot [ie. •] signifies minor effect (from about 10 to about 30% change))”. For the same molecule, the “Effect on fungal biofilm growth” value in the series on fungal biofilms was “support (improve) fungal biofilm growth”.

`O=C(O)[C@@H]1CCCN1` [Proline, L-proline]: the activation at 1 % with S. aureus [3] (disruption assay, S. aureus, 1% amino acid (unless specifically noted), p≤0.001, read-out: Promote B Biofilm) lay in the range of 10 to 30%. In addition, the “Effect on bacterial biofilm growth” value in the series on bacterial biofilms is listed as “support (improve) bacterial biofilm growth”. Besides, in the series on C. albicans [8] (setting [11]), the “Reduce F Biofilm” value is “● (a single dot [ie. •] signifies minor effect (from about 10 to about 30% change))”. In addition, the “Anti-biofilm effect … (reduction)” value in the series on fungal biofilms is “less than twofold”.

For the molecule `NCCO` [Ethanolamine, ethanolamine], in the series with C. albicans [7] (setting [10]), the “Reduce F Biofilm” value was “● (a single dot [ie. •] signifies minor effect (from about 10 to about 30% change))”. The “Anti-biofilm effect … (reduction)” value with fungal biofilms is “less than twofold”.

In the case of `N[C@@H](Cc1ccc(O)cc1)C(=O)O` [Tyrosine, L-tyrosine], in series [2], the Effect on biofilms entry is “neutral effect on biofilms” and the “Effect on bacterial or fungal biofilms in both assays” value was “neutral”.
